For test [1], the system named is ssRNA oligonucleotide containing a single AGGUAA site (GCAACCAGGUAAAGUCU, SEQ ID NO: 28). The test can be described thus: Fluorescence anisotropy titration, single-site ssRNA. Particulars: GST fusions; ssRNA with 5′ fluorescein tag and a single AGGUAA site; 25° C. Type of test: binding. As for the experimental part:
(§1) Fluorescence Anisotropy titrations e.g., as shown in FIGS. 1D-F, 8 and 35, were carried out using standard protocols. In brief, 5′-Fluorescein-labeled RNA oligonucleotides were quantified by A260, correcting for fluorescein absorbance by using A493. For single-site experiments, the sequence GCAACCAGGUAAAGUCU (SEQ ID NO: 28), or single base mutants thereof, was used. For double-site experiments, two AGGUAA sites were separated by different length sequences as indicated, and the total oligonucleotide lengths were kept constant by the symmetrical addition of adenines to each end. […] Protein was titrated into this starting solution and anisotropy values measured on a Cary Eclipse fluorescence spectrophotometer fitted with manual polarizer and long-pass filters set to 475 and 515 nm for excitation and emission, respectively. […] Association constants were determined by nonlinear least squares regression analysis using a 1:1 binding model.
Constructs of the two individual domains, F1 (FIG. 2, residues 1-45) and F2 (FIG. 2, residues 65-95), were cloned expressed and purified as GST fusions described in section 1.2 above, and tested their ability to bind ssRNA by fluorescence anisotropy as described in section 1.5 above, using a ssRNA oligonucleotide bearing a 5′ fluorescein tag and containing a single AGGUAA site.

In the next test the test system is AGAUAA ssRNA. The test can be described thus: Fluorescence anisotropy binding assay, AGAUAA substrate. Particulars: FIG. 19 and FIG. 20. As for the experimental part:
as §1
To determine whether changing arginine-82 (R82) would affect the binding preference of ZRANB2-F2 from GGU to GAU, the point mutation R82Q in ZNF 2 of ZRANB2 was made and the ability of both the wild type (W) protein and the R82Q mutant to bind to AGGUAA and AGAUAA was assessed by fluorescence anisotropy binding assays as described previously in Example 1.

For test [2], the system named is short (6 or 10 nt) RNA oligonucleotides containing a single AGGUAA motif. Description: NMR chemical-shift perturbation (15N-HSQC) RNA titration. Type of test: binding. Particulars: 15N-labeled F2. Here is the method: In brief, F2 and F12 were dialysed into 25 mM potassium phosphate (pH 7.0), 25 mM NaCl, and 0.5 mM DTT and concentrated to 0.4-1 mM. All spectra were recorded on a Bruker Avance 600 spectrometer equipped with a cryoprobe. 1H, 15N, and 13C assignments were obtained from HNCACB, CB-CA(CO)NH, HCCH-TOCSY, NOESY, and TOCSY spectra acquired at 2° C., 5° C., or 25° C. Dihedral angle restraints were obtained by analysis of an HNHA spectrum as previously described in Vuister G. W. and Bax A. 1993 J Am Chem Soc 115: 7772-7777. NMR data were processed by using XWINNMR/Topspin (Bruker) and analyzed with SPARKY (T. D. Goddard and D. G. Kneller, University of California, San Francisco). The structure of F2 was calculated from NOE and Ø angle constraints (e.g., FIGS. 5 and 9C) by using a protocol as described in Plambeck C. A., et al., 2003 J Biol Chem 278: 22805-22811.
For RNA titrations, deprotected RNA oligonucleotides i.e., having the sequence AGGUAA, CCAGGUAAAG (SEQ ID NO: 25), or AGGUAAAGGUAA (SEQ ID NO: 26) and the appropriate protein were dialyzed into 10 mM Mops (pH 7.2) and 0.5 mM DTT. Protein and RNA concentrations were calculated from A280 and A260, respectively. Final concentrations of complexes after titrations were typically approximately 0.1-0.5 mM. Assignments of the F2:RNA complex (1:1 or 1:1.2 molar ratio) were made at 25° C. as described above. […]

For “F2: F2 zinc finger domain (residues 65-95 of human ZRANB2), wild type (SANDWQCKTCSNVNWARRSECNMCNTPKYAK; F2 zinc finger domain GST fusion in some uses; UniProt O95218 65-95, looked up, fragment)”, the association constant in test [1] came to 1e+06 M⁻¹. Moreover, in the test on AGAUAA ssRNA, the “binding affinity to guanine base relative to adenine base at position 3 (AGGUAA vs AGAUAA)” value is recorded as “about 4 fold”. Moreover, the “complex formed on RNA titration” value in test [2] is “well-defined 1:1 complex”.
On to “F1: F1 zinc finger domain (residues 1-45 of human ZRANB2) (MSTKNFRVSDGDWICPDKKCGNVNFARRTSCNRCGREKTTEAKMM; F1 zinc finger domain GST fusion in some uses; UniProt O95218 1-45, looked up, fragment)”, for which the association constant in test [1] amounted to 3e+06 M⁻¹.

(Values after patent publication US20130022590A1, “Compositions Comprising Zinc Finger Domains and Uses Therefor” (priority 2009, published 2013).)
